The conditions of test [1]: Wigglesworth, J. Ins. Physiol. 9, 105 (1963); cited from earlier work.
Another test concerns Mexican bean beetle. As to the kind of experiment: topical application to Mexican bean beetle, fourth larval stage, maturation inhibition. As to conditions: rating scale 0-3. Type of test: in vivo. The method in brief:
(§1)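 Compounds applied topically, 1 μL acetone solution at 10%, 1% or 0.5%, to ten specimens per insect per concentration, alongside acetone and untreated controls; scored after about 8–10 days. Juvenile/adult characteristics rated 0–3 (Tenebrio 0–4), ≥2 meaning unable to reproduce; unreported specimens died during metamorphosis.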

Another test deals with wax moth. As to the kind of experiment: topical application to wax moth, fifth larval stage, maturation inhibition. Type of test: in vivo. In outline:
as §1

For a further test, the system named is alfalfa weevil larvae. As to the kind of experiment: topical application to alfalfa weevil larvae. Type of test: in vivo. Conditions: 10 percent solution in acetone, all controls reached normal adulthood. The source says:
A number of compounds were applied topically to alfalfa weevil larvae as a 10 percent solution in acetone. Acetone and nontreated controls were also run. Ten larvae were used in each test. The number of normal adults emerging from the larvae was observed. In each case, all the acetone and nontreated controls reached normal adulthood. The number of normal adults from treated larvae are reported below.

For another test, the system named is Tenebrio molitor pupae. As to the kind of experiment: topical application to Tenebrio molitor pupae, maturation inhibition. Type of test: in vivo. In outline:
as §1

The subject of the next test is milkweed bug. The test can be described thus: topical application to milkweed bug, fourth nymphal stage, maturation inhibition. Type of test: in vivo. As to conditions: rating scale 0-3. The method in brief: as §1
The next test relates to housefly larvae. The test can be described thus: topical application to housefly larvae. Type of test: in vivo, Musca domestica. Conditions: scale 0-2. How it is done: The compounds were applied in acetone solution at concentrations of 10 percent, 1 percent and 0.5 percent. One microliter of the acetone solution was applied to each test specimen. Ten test specimens were employed for each insect at each concentration and compared to ten acetone controls and ten zero controls. Approximately eight to ten days were required before results could be ascertained.
A number of compounds were tested against housefly larvae by topical application in an acetone solution using the method described above for the primary test against Tenebrio, milkweed bug, wax moth, and Mexican bean bettel. The results with the first compound are reported on a scale of 0 to 3 with 0 indicating a normal adult, 1 indicating an adult with deformed wings, 2 indicating a partially emerged adult, and 3 indicating no evidence of emergence. The results for the other compounds are reported onn a scale of 0 to 2 with 0 indicating a normal adult, 1 indicating a partially emerged adult and 2 indicating no evidence of emergence.

In another test the test system is aphid nymphs. The test can be described thus: application to aphid nymphs in acetone. Type of test: in vivo, Aphis gossypi. As to conditions: 3 days. How it is done:
In another test, female aphids were placed on young squash plants and allowed to produce young for 24 hours. After 24 hours, all adult aphids were removed from the plants and the young were maintained on the plants for an additional 48-hour period. This gave an aphid nymph population having an age of 48 to 72 hours. To each nymph was applied […]. of a 10 percent, 1 percent, or 0.5 percent solution of 2.6- dimethyl-9-(3,4-methylenedioxyphenyl)-2,6-nonadiene or 7,8-epoxy-4-ethyl-8-methyl-1-(3,4-methylenedioxyphenyl)-3-decene in acetone and the aphid nymphs were transferred to new squash plants and observed for possible effects. Ten nymphs were treated with each concentration of each compound and 10 were treated with acetone alone while 10 were not treated to serve as controls. […] There was only one dead nymph treated with acetone alone and one dead nymph in the nontreated controls.

In test [2] the test system is Housefly (Musca domestica). As to the kind of experiment: housefly rearing diet test, percent adult emergence. Type of test: in vivo. How it is done: Test compounds were mixed with the rearing diet of houseflys at various levels. The prepared diet was then placed in an 8 oz. drinking cup. Three cups were prepared for each treatment level and three control cups. Housefly eggs (Musca domestica) were placed in each cup and they were maintained at 28°C. for 1 week. Fifty pupae were then removed from each cup and placed in a petri dish. After the control pupae had emerged into adults, the percent emergence in each dish was recorded. The test compounds used were 7,8-epoxy-4-ethyl-8-methyl-1-(3,4-methylenedioxyphenyl)-3-decene, 4,8-dimetyl-1-(3,4-methylenedioxyphenyl)-2,6-nonadiene and 2,6-dichloro-2,6-dimethyl-9-(3,4-methylenedioxyphenyl)nonane.

For test [3], the system named is Aedes aegypti mosquito larvae. The test can be described thus: mosquito larvae in aqueous solutions, adult emergence. Conditions: for number of adults, Jar 1 Dead / number of adults, Jar 1 Living / number of adults, Jar 2 Dead / number of adults, Jar 2 Living: 13 days. Type of test: in vivo. How it is done: Two compounds, 7,8-epoxy-4-ethyl-8-methyl-1-(3,4-methylenedioxyphenyl)-3-decene and 2,6-diemthyl-9-(3,4-methylenedioxyphenyl)-2,6-nonadiene, were tested against Aedes aegypti mosquito larvae in aqueous solutions at concentrations of 10, 5, 2.5. 1.25 and 0.625 ppm. each. Ninety milliliters of each solution were placed in a pint jar and 30 five-day-old mosquito larvae were added to each jar. Two tests were run at each concentration and control tests employing only solvent with no compound were also run. Food was added to each jar, the jars were covered with cloths, and maintained at 29°C. until adults emerged in the control jars. The number of adults in the test jars was determined.

The mark [4] stands for this setting: 10% in acetone, 1 microliter topical, rating scale 0 (no effect) to 3 (maximum).

Bounds are passed on as bounds.

In the case of “9-(2-furyl)-2,6-dimethyl-2,6-nonadiene [dendrolasin]”, the juvenile hormone activity result in test [1] is reported as “some juvenile hormone activity”.

As to `COc1ccc(CCC=C(C)CCC=C(C)C)cc1OC` [2,6-DIMETHYL-9-(3,4-DIMETHOXYPHENYL)-2,6-NONADIENE], the “number of specimens in rating 0” value with Mexican bean beetle (0.5%) is 10 specimens; in the test on Mexican bean beetle (1%), 10 specimens; in the test on wax moth (0.5%, rating scale 0-3), 10 specimens; in the test on wax moth (1%, rating scale 0-3) it was 10 specimens; with wax moth (setting [4]) it was 10 specimens; in the test with Tenebrio molitor pupae (0.5%, rating scale 0-4), 10 specimens. Also, the “number of specimens in rating 0” value in the test with Tenebrio molitor pupae (1%, rating scale 0-4) is reported as 4 specimens; with Tenebrio molitor pupae (10% in acetone, 1 microliter topical, rating scale 0 (no effect) to 4 (maximum)), 2 specimens; in the test with milkweed bug (0.5%), 8 specimens; with milkweed bug (1%), 8 specimens. Also, the “number of specimens in rating 1” value is listed as 3 specimens in the test on Mexican bean beetle (10%); 5 specimens with Tenebrio molitor pupae (1%, rating scale 0-4); 5 specimens in the test with Tenebrio molitor pupae (10%, rating scale 0-4). Also, the “Number of Adults (normal adults from ten treated larvae)” value with alfalfa weevil larvae was found to be 5. The “number of specimens in rating 2” value in the test with Tenebrio molitor pupae (10%, rating scale 0-4) was found to be 3 specimens; with milkweed bug (10%) it was 3 specimens. Moreover, the “number of specimens in rating 3” value in the test with milkweed bug (10%) is 2 specimens.

Consider `COc1cccc(CCC=C(C)CCC=C(C)C)c1` [2,6-DIMETHYL-9-(3-METHOXYPHENYL)-2,6-NONADIENE], for which the “number of specimens in rating 0” value with Mexican bean beetle (0.5%) came out at 10 specimens; with Mexican bean beetle (1%), 10 specimens; in the test with wax moth (0.5%, rating scale 0-3), 10 specimens; with wax moth (1%, rating scale 0-3), 9 specimens; in the test on wax moth (setting [4]), 9 specimens; in the test with milkweed bug (0.5%) it was 3 specimens. Further, the “number of specimens in rating 3” value in the test on Mexican bean beetle (10%) worked out at 3 specimens; with Tenebrio molitor pupae (0.5%, rating scale 0-4), 1 specimens; in the test with milkweed bug (1%), 3 specimens; in the test with milkweed bug (10%), 9 specimens. Also, the “number of specimens in rating 2” value in the test on wax moth (10%, rating scale 0-3) is 1 specimens; with milkweed bug (0.5%), 4 specimens; in the test on milkweed bug (1%), 5 specimens. Besides, in the test with alfalfa weevil larvae, the “Number of Adults (normal adults from ten treated larvae)” value stood at 6. Further, the “number of specimens in rating 4” value worked out at 9 specimens with Tenebrio molitor pupae (0.5%, rating scale 0-4); 10 specimens with Tenebrio molitor pupae (1%, rating scale 0-4); 10 specimens in the test on Tenebrio molitor pupae (10%, rating scale 0-4). For the same molecule, the “number of specimens in rating 1” value is listed as 3 specimens in the test with milkweed bug (0.5%) and 1 specimens in the test on milkweed bug (1%).

On to `CCC(=CCCc1ccc2c(c1)OCO2)CCC1OC1(C)CC` (stereo not drawn) [7,8-epoxy-4-ethyl-8-methyl-1-(3,4-methylenedioxyphenyl)-3-decene], for which the “number in rating 0 (normal adult)” value with housefly larvae (0.5%) is given as 6; in the test with housefly larvae (1%), 5. The “number in rating 2 (no evidence of emergence)” value in the test with housefly larvae (0.5%) amounted to 4; in the test with housefly larvae (1%), 4; in the test with housefly larvae (10%), 10. Further, the “number in rating 1 (partially emerged adult)” value in the test on housefly larvae (1%) amounted to 1. Further, the “number of specimens in rating 3” value in the test with Mexican bean beetle (0.5%) is 10 specimens; with Mexican bean beetle (1%) it was 10 specimens; in the test with wax moth (0.5%, rating scale 0-3), 9 specimens; in the test with wax moth (1%, rating scale 0-3), 10 specimens; with milkweed bug (0.5%), 9 specimens; in the test with milkweed bug (1%), 8 specimens. Also, in the test on wax moth (0.5%, rating scale 0-3), the “number of specimens in rating 0” value came to 1 specimens. The dead nymphs result is recorded as “nine of the ten” in the test on aphid nymphs (0.5 percent), “all of the nymphs” in the test with aphid nymphs (1 percent) and “all of the nymphs” in the test with aphid nymphs (10 percent). For the same molecule, the “percent adult emergence, Cup 1” value is listed as 100% in test [2] (0.1 ppm in diet), 100% in test [2] (1 ppm in diet), 100% in test [2] (10 ppm in diet) and 10% in test [2] (100 ppm in diet). Besides, the “percent adult emergence, Cup 2” value in [2] (0.1 ppm in diet) was 100%; in test [2] (1 ppm in diet), 100%; in test [2] (10 ppm in diet) it was 100%; in test [2] (100 ppm in diet), 20%. Also, the “percent adult emergence, Cup 3” value in test [2] (0.1 ppm in diet) came to 100%; in [2] (1 ppm in diet), 100%; in [2] (10 ppm in diet), 100%; in test [2] (100 ppm in diet), 10%. Besides, the control in test [2] (100 ppm) was ≥ 80%; in test [3] (at concentrations as low as 0.625 ppm), 100%. The “number of specimens in rating 4” value with Tenebrio molitor pupae (0.5%, rating scale 0-4) is 10 specimens; in the test on Tenebrio molitor pupae (1%, rating scale 0-4) it was 10 specimens. The “number of adults, Jar 1 Dead” value in test [3] (0.625 ppm), in test [3] (1.25 ppm), in test [3] (2.5 ppm), in test [3] (5 ppm) and in test [3] (10 ppm) was 0 throughout. For the same molecule, the “number of adults, Jar 1 Living” value in test [3] (0.625 ppm), in test [3] (1.25 ppm), in test [3] (2.5 ppm), in test [3] (5 ppm) and in test [3] (10 ppm) was 0 throughout. Besides, the “number of adults, Jar 2 Dead” value in test [3] (0.625 ppm), in test [3] (1.25 ppm), in test [3] (2.5 ppm), in test [3] (5 ppm) and in [3] (10 ppm) was 0 each time. The “number of adults, Jar 2 Living” value in [3] (0.625 ppm), in test [3] (1.25 ppm), in test [3] (2.5 ppm), in test [3] (5 ppm) and in test [3] (10 ppm) was 0 each time. Further, the “live adults in the jars” value in test [3] (nonadiene at 10, 5, and 2.5 ppm, decene at any concentration) was “never any live adults”.

`CC(C)=CCCC(C)=CCCc1ccc2c(c1)OCCO2` [9-(3,4-ethylenedioxyphenyl)-2,6-dimethyl-2,6-nonadiene]: the “Number of Adults (normal adults from ten treated larvae)” value with alfalfa weevil larvae is on record as 7. Further, the “number of specimens in rating 4” value in the test on Tenebrio molitor pupae (0.5%, rating scale 0-4) was 10 specimens; in the test on Tenebrio molitor pupae (1%, rating scale 0-4) it was 8 specimens; in the test with Tenebrio molitor pupae (10%, rating scale 0-4), 10 specimens. The “number of specimens in rating 3” value with Tenebrio molitor pupae (1%, rating scale 0-4) was determined as 2 specimens.

For `COc1cc(CCC=C(C)CCC=C(C)C)cc(OC)c1` [9-(3,5-dimethoxyphenyl)-2,6-dimethyl-2,6-nonadiene], the “Number of Adults (normal adults from ten treated larvae)” value in the test on alfalfa weevil larvae is reported as 8.

(Values after patent US3962282A, “Juvenile hormone mimics” (priority 1974, dated 1976).)
